From PMC4965148 (PLoS ONE, 2016)
Several values for one entry are separate records, joined by “and”; a condition that tells them apart may be missing. Equal values may be shown once. Entries after “also recorded” stand apart in the source; their conditions may differ. Read-outs that look alike come from different tables or passages of the source.

Columns and labels:
[1] = test system: neonatal PCP treated rats; assay: Rat neonatal PCP ID/ED set shifting; assay type: in vivo; settings: for Number of trials to criteria, Complex discrimination / Number of trials to criteria, Simple discrimination: individual rats
Protocol: Male pups were treated with either 0.9% saline (sham) or PCP (20 mg/kg, sc) on post-natal days 7, 9 and 11 and then singly housed after weaning on postnatal days 21–25. All studies were conducted in adult animals (2–4 months of age) using methods adapted from. Rats were food-restricted (15g/rat/day) for 7 days prior to the initiation of training and throughout the remainder of the study. At the time of testing the average (± SEM) body weight ranged from 278 ± 6g to 296 ± 9g across the individual treatment groups. The animals then received 3 days of training during which they were handled, habituated to the test arena (5 min/day) and trained to dig in a ceramic pot for a food reward (Honey Nut Cheerios). The testing arena was constructed of black plastic (45 cm wide x 60 cm long x 45 cm tall) and divided into 3 compartments, i.e. a separate starting box and 2 choice boxes separated by an opaque wall. Each choice box contained a terracotta (4 inch diameter) pot, filled with digging media and with scented oil applied to the rim. At the beginning of each trial the animal was placed in the start box, the sliding door was opened and the subject was allowed to freely explore the two choice boxes. Both pots were initially baited with food until the subject reliably retrieved the food rewards from each. Thereafter, rats were trained to discriminate between either 2 distinct odors (stimulus dimension 1) or 2 distinct digging media (stimulus dimension 2) in order to correctly identify the baited pot. On the first trial only, rats were allowed to dig in both pots if an error was made (with the trial scored as an error trial). Thereafter animals were allowed to dig in one pot only per trial and were tested until the performance criterion of 6 consecutive correct choices was achieved. Each trial was limited to a maximum duration of 5 min and any subject not achieving performance criteria was eliminated from the study. On completion of a successful odor discrimination animals were then trained to successfully complete a simple discrimination trial based on digging media. Odor and digging media used in these initial training trials were not used again for ID/ED testing. […] All subjects were brought to the experimental laboratory at least 30 min prior to behavioral assessment. To determine ID/ED performance rats were tested for their ability to successfully complete a series of discriminations based on either odor or digging media. In all instances subjects were pre-assigned one stimulus dimension (i.e. digging media or odor) as the correct predictor of the food reward for the first series of discriminations. Only at the final stage i.e. the extra-dimensional shift (EDS) was the subject required to shift attention away from the assigned stimulus dimension to a different dimension (e.g. odor to digging media) to correctly identify the baited pot. The sequence of discriminations was a follows: simple discrimination (SD), compound discrimination (CD), intra-dimensional shift 1 (IDS1), intra-dimensional shift 2 (IDS2), intra-dimensional shift 2 reversal (IDS2rev) and EDS and examples of exemplars are shown in S1 Table. For all discrimination stages successful completion was defined as 6 consecutive correct trials at which point subjects progressed to the next phase of the task. The test session ended when either i) all discrimination phases were successfully completed or ii) testing had proceeded for 120 min. The average duration of a test session was 1 h and all subjects completed the ID/ED task within the allotted timeframe.

[2] = Plasma and brain concentrations after dosing; assay type: in vivo, mouse; settings: for Brain Mean ± SD / concentration at 30 min / Kp at 30 min: 30 min; for concentration at 60 min: sc, Mouse MK-801 Y Maze
Protocol: Occupancy determinations were made either on completion of behavioral testing or in satellite groups of animals dosed in parallel with behavioral testing. At specified time points after dosing, the forebrain (for occupancy), the remaining hindbrain (for brain drug exposure) and plasma were collected, frozen in chilled isopentane and stored at -80°C until assayed. […] Homogenized tissue aliquots were frozen immediately and stored at -80°C. […] Non-specific binding was defined by adding 25 μM MLA to wells containing tissues from vehicle-treated animals. […] The filters were washed with ice-cold assay buffer, punched into a clear plate and 200 μl scintillation fluid added per well. Bound radioactivity was measured using a Wallac Microbeta liquid scintillation counter. Specific binding was calculated by subtracting the value of the non-specific binding from that of the total binding in each sample. The percent occupancy was calculated as [1 –(specific binding in drug treated mice/specific binding in vehicle treated mice)] x 100.
In brief, 50 μL of the plasma sample was extracted by protein precipitation with 150 μL acetonitrile containing an internal standard and 5 μL of supernatant injected into the LC-MS/MS system. Analytes were separated by reversed phase chromatography and detection of each analyte was achieved through selected reaction monitoring mode of mass spectrometry.

[3] = target: Estrogen receptor alpha (Homo sapiens, UniProt P03372); assay: Selectivity panel, binding
Estrogen receptor alpha, sequence (P03372 whole entry): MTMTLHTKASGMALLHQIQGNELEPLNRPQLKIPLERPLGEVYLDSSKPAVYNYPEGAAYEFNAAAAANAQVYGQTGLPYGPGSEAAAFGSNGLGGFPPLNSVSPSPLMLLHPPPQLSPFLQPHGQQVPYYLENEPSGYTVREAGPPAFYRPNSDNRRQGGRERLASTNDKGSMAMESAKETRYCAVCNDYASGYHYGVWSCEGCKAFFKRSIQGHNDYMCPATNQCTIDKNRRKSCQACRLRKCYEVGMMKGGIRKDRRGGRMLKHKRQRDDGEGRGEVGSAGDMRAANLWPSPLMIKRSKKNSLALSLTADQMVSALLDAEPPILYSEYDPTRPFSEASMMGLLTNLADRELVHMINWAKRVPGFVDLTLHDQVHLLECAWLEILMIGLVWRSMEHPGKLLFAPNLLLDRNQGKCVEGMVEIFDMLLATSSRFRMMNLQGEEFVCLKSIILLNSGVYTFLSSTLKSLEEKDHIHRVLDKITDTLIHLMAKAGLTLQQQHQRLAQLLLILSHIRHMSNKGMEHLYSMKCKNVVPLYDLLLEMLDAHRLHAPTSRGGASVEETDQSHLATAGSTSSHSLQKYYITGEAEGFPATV

[4] = target: Dopamine transporter (Homo sapiens, UniProt Q01959); assay: Selectivity panel, binding
Dopamine transporter, sequence (Q01959 whole entry): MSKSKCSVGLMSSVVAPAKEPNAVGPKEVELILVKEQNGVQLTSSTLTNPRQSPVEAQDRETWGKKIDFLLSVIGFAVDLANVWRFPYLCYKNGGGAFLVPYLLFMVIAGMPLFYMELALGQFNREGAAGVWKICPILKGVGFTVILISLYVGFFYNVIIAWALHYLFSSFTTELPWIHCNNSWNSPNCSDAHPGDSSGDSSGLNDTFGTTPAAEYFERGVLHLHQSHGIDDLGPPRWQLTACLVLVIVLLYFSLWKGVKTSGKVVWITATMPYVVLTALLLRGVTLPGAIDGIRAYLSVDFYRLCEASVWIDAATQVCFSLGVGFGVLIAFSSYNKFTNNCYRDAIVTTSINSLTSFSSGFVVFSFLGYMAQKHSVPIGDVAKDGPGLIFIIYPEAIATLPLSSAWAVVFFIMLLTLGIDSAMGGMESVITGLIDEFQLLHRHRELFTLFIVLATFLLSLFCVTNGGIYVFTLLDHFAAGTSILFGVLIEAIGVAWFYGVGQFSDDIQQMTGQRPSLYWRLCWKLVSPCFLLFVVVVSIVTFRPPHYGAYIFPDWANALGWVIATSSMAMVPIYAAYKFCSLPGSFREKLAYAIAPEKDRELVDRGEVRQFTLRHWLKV

[5] = target: Muscarinic M1 (Homo sapiens, UniProt P11229); assay: Selectivity panel, binding; settings: read-out: % inhibition @ 10 µM
Muscarinic M1, sequence (P11229 whole entry): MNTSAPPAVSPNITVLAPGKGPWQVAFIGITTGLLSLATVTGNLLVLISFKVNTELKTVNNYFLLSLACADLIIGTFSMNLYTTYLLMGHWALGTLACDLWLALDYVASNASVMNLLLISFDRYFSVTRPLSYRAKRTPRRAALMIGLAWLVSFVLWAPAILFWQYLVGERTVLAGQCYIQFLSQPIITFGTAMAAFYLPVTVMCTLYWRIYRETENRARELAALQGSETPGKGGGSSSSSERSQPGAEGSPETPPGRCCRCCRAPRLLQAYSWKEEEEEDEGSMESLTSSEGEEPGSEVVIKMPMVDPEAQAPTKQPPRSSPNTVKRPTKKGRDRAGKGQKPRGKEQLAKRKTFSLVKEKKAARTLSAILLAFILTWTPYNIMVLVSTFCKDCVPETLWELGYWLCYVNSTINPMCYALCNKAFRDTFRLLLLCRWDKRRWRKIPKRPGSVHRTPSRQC

[6] = target: T1, α7 nAChR (Rattus norvegicus, UniProt Q05941); assay: Ex vivo α7 nAChR occupancy ([3H]-A-585539); assay type: in vivo; settings: for receptor occupancy at 10 mg/kg: rat
T1 construct: One forebrain hemisphere from each animal was thawed and homogenized in assay buffer; from tissue; host or cells: forebrain homogenate of dosed male Sprague Dawley rats
T1 sequence (Q05941 23-502): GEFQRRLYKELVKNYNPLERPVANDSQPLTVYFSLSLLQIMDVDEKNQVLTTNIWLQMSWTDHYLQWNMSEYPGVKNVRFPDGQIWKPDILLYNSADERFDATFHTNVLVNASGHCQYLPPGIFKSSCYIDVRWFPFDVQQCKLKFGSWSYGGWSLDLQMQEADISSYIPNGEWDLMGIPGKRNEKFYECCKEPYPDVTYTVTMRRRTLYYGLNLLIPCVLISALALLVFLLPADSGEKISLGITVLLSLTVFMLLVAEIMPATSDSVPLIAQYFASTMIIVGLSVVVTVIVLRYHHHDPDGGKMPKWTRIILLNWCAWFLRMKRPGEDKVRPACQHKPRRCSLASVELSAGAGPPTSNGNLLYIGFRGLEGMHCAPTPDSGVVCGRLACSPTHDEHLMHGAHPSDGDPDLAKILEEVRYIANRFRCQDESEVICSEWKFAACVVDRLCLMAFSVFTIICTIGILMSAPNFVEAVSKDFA

In the case of `c1cn(-c2cc(NC3=NC[C@@]4(CN5CCC4CC5)O3)ncn2)cn1` [BMS-933043, (2R)-N-(6-(1H-imidazol-1-yl)-4-pyrimidinyl)-4'H-spiro[4-azabicyclo[2.2.2]octane-2,5'-[1,3]oxazol]-2'-amine], the “EDS performance in neonatal PCP treated rats” value ([1]; 0.1–3 mg/kg po) is reported as “significantly improved EDS performance; also recorded: completely reversed by all doses”, the “Number of trials to criteria, Complex discrimination” value (“Number … Complex discrimination” for short) ([1]; PCP/0.1 mg/kg po, 0.1 mg/kg) is reported as 6 (2×) and 16 and 7 (2×) and 8 (2×) and 21 and 19 and the “Number of trials to criteria, Simple discrimination” value (“Number … Simple discrimination” below) ([1]; PCP/0.1 mg/kg po, 0.1 mg/kg) is reported as 7 (3×) and 11 and 9 and 8 (2×) and 10 and 6. The “Number … Complex discrimination” value ([1]; PCP/0.3 mg/kg po, 0.3 mg/kg) was 18 and 10 (2×) and 7 and 6 (3×) and 8 and 16, the “Number … Simple discrimination” value ([1]; PCP/0.3 mg/kg po, 0.3 mg/kg) was 10 and 15 and 13 and 8 and 9 and 12 and 6 and 19 and 7 and the “Number … Complex discrimination” value ([1]; PCP/1 mg/kg po, 1 mg/kg) was 6 (2×) and 11 (2×) and 7 (2×) and 13 and 14 (2×). The “Number … Simple discrimination” value ([1]; PCP/1 mg/kg po, 1 mg/kg) was 6 (3×) and 12 (2×) and 13 and 11 and 8 and 9, the “Number … Complex discrimination” value ([1]; PCP/3 mg/kg po, 3 mg/kg) was 6 (2×) and 8 and 16 and 10 (2×) and 15 and 17 and 11 and the “Number … Simple discrimination” value ([1]; PCP/3 mg/kg po, 3 mg/kg) was 7 (4×) and 6 (2×) and 16 (2×) and 9. For the same molecule, the “Active dose range, Neonatal PCP ID/ED” value ([1]; po) was 0.1–3.0 (po) mg/kg, the “longer time to complete the EDS in neonatal PCP treated rats” value ([1]; po) was “attenuated” and the “Brain Mean ± SD” value ([2]; Mouse NOR (0.03-1 mg/kg study), 0.03 mg/kg sc) was “< LLQ”. The “Brain Mean ± SD” value ([2]; Mouse NOR (0.03-1 mg/kg study), 0.10 mg/kg sc) was “< LLQ”, the concentration at 30 min ([2]; mouse, brain, subcutaneous, 0.3 mg/kg, Mouse NOR (0.03-1 mg/kg study), 0.30 mg/kg sc, read-out: Brain Mean ± SD) was 24 ± 3.9 nM and the concentration at 30 min ([2]; mouse, brain, subcutaneous, 1 mg/kg, Mouse NOR (0.03-1 mg/kg study), 1 mg/kg sc, read-out: Brain Mean ± SD) was 78 ± 5.2 nM. For the same molecule, the concentration at 30 min ([2]; mouse, brain, subcutaneous, 1 mg/kg, Mouse NOR (1-10 mg/kg study), 1 mg/kg sc, read-out: Brain Mean ± SD) was 97 ± 16 nM, the concentration at 30 min ([2]; mouse, brain, subcutaneous, 3 mg/kg, Mouse NOR (1-10 mg/kg study), 3 mg/kg sc, read-out: Brain Mean ± SD) was 297 ± 48 nM and the concentration at 30 min ([2]; mouse, brain, subcutaneous, 10 mg/kg, Mouse NOR (1-10 mg/kg study), 10 mg/kg sc, read-out: Brain Mean ± SD) was 1110 nM. For the same molecule, the Kp at 30 min ([2]; mouse, brain/plasma, subcutaneous, 0.3 mg/kg, Mouse NOR (0.03-1 mg/kg study), 0.30 mg/kg sc) was 0.12, the Kp at 30 min ([2]; mouse, brain/plasma, subcutaneous, 1 mg/kg, Mouse NOR (0.03-1 mg/kg study), 1 mg/kg sc) was 0.11 and the Kp at 30 min ([2]; mouse, brain/plasma, subcutaneous, 1 mg/kg, Mouse NOR (1-10 mg/kg study), 1 mg/kg sc) was 0.21. For the same molecule, the Kp at 30 min ([2]; mouse, brain/plasma, subcutaneous, 3 mg/kg, Mouse NOR (1-10 mg/kg study), 3 mg/kg sc) was 0.19, the Kp at 30 min ([2]; mouse, brain/plasma, subcutaneous, 10 mg/kg, Mouse NOR (1-10 mg/kg study), 10 mg/kg sc) was 0.2 and the Kp ([2]; mouse, brain/plasma, subcutaneous, mice, read-out: average brain/plasma) was 0.17. For the same molecule, the concentration at 60 min ([2]; mouse, plasma, 0.03 mg/kg, 0.03 mg/kg sc, read-out: Plasma Mean ± SD) was 5 ± 0.4 nM, the concentration at 60 min ([2]; mouse, plasma, 0.1 mg/kg, 0.10 mg/kg sc, read-out: Plasma Mean ± SD) was 21 ± 2.4 nM and the concentration at 60 min ([2]; mouse, plasma, 0.3 mg/kg, 0.30 mg/kg sc, read-out: Plasma Mean ± SD) was 94 ± 19 nM. For the same molecule, the concentration at 60 min ([2]; mouse, plasma, 1 mg/kg, 1 mg/kg sc, read-out: Plasma Mean ± SD) was 254 ± 32 nM, the concentration at 60 min ([2]; mouse, plasma, 3 mg/kg, 3 mg/kg sc, read-out: Plasma Mean ± SD) was 774 ± 282 nM and the concentration at 60 min ([2]; mouse, plasma, 10 mg/kg, 10 mg/kg sc, read-out: Plasma Mean ± SD) was 2980 nM. It also gave a concentration at 30 min ([2]; mouse, plasma, subcutaneous, 0.03 mg/kg, Mouse NOR (0.03-1 mg/kg study), 0.03 mg/kg sc, read-out: Plasma Mean ± SD) of 14 ± 2.7 nM, a concentration at 30 min ([2]; mouse, plasma, subcutaneous, 0.1 mg/kg, Mouse NOR (0.03-1 mg/kg study), 0.10 mg/kg sc, read-out: Plasma Mean ± SD) of 52 ± 3.6 nM and a concentration at 30 min ([2]; mouse, plasma, subcutaneous, 0.3 mg/kg, Mouse NOR (0.03-1 mg/kg study), 0.30 mg/kg sc, read-out: Plasma Mean ± SD) of 213 ± 49 nM. It also gave a concentration at 30 min ([2]; mouse, plasma, subcutaneous, 1 mg/kg, Mouse NOR (0.03-1 mg/kg study), 1 mg/kg sc, read-out: Plasma Mean ± SD) of 719 ± 69 nM, a concentration at 30 min ([2]; mouse, plasma, subcutaneous, 1 mg/kg, Mouse NOR (1-10 mg/kg study), 1 mg/kg sc, read-out: Plasma Mean ± SD) of 459 ± 59 nM and a concentration at 30 min ([2]; mouse, plasma, subcutaneous, 3 mg/kg, Mouse NOR (1-10 mg/kg study), 3 mg/kg sc, read-out: Plasma Mean ± SD) of 1570 nM. For the same molecule, the concentration at 30 min ([2]; mouse, plasma, subcutaneous, 10 mg/kg, Mouse NOR (1-10 mg/kg study), 10 mg/kg sc, read-out: Plasma Mean ± SD) was 5560 nM, the IC50 [3] was > 150 µM and the IC50 [4] was > 30 µM. For the same molecule, the inhibition at 10 µM [5] was 11%, the “% ex vivo α7 nAChR occupancy” value ([6]; 3 mg/kg po, 90 min, individual rats) was 65% and 63% and 62% and 28% and the “% ex vivo α7 nAChR occupancy” value ([6]; 10 mg/kg po, 90 min) was 83% and 78% and 77% and > 75%. The “% ex vivo α7 nAChR occupancy” value ([6]; 30 mg/kg po, 90 min, individual rats) was 82% and 90% and 67% and 69%, the receptor occupancy at 10 mg/kg ([6]; po, 10 mg/kg po, 90 min, read-out: % ex vivo α7 nAChR occupancy) was 80% and the receptor occupancy at 10 mg/kg ([6]; rats, 10 mg/kg sc to 30 mg/kg po, read-out: ex vivo α7 nAChR occupancy at doses associated with a loss of efficacy) was ≥ 80%. For the same molecule, the EC50 ([6]; rats, read-out: total plasma concentration achieving 50% ex vivo α7 nAChR occupancy) was 0.81 µM.
